What was measured:
Assay type in all cases: in vivo
[1] = system: Alopecurus myosuroides (ALOMY); experiment: Pre-emergence biological efficacy, glasshouse, 1000 g/ha, evaluated after 13 days (100=total damage to plant; 0=no damage to plant); settings: Alopecurus myosuroides, 312 h, rate 1,000 g/ha, read-out: Percentage damage caused to weed species, pre-emergence, ALOMY
Method in brief: (§1)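 Pot-sown in standard soil; glasshouse 24/16° C. (day/night), 14 h light, 65% humidity; watered twice daily.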

[2] = system: Amaranthus retroflexus (AMARE); experiment: as above; settings: Amaranthus retroflexus, 312 h, rate 1,000 g/ha, read-out: Percentage damage caused to weed species, pre-emergence, AMARE
Method in brief: as §1

[3] = system: Echinochloa crus-galli (ECHCG); experiment: as above; settings: Echinochloa crus-galli, 312 h, rate 1,000 g/ha, read-out: Percentage damage caused to weed species, pre-emergence, ECHCG
Method in brief: as §1

[4] = system: Ipomoea hederaceae (IPOHE); experiment: as above; settings: Ipomoea, 312 h, rate 1,000 g/ha, read-out: Percentage damage caused to weed species, pre-emergence, IPOHE
Method in brief: as §1

Setaria faberi (SETFA) [5] = experiment: as above; settings: Setaria faberi, 312 h, rate 1,000 g/ha, read-out: Percentage damage caused to weed species, pre-emergence, SETFA
Method in brief: as §1

Solanum nigrum (SOLNI) [6] = experiment: as above; settings: Solanum nigrum, 312 h, rate 1,000 g/ha, read-out: Percentage damage caused to weed species, pre-emergence, SOLNI
Method in brief: as §1

[7] = system: Alopecurus myosuroides (ALOMY); experiment: Post-emergence biological efficacy, glasshouse, 500 or 1000 g/ha, evaluated after 13 days (100=total damage to plant; 0=no damage to plant); settings: Alopecurus myosuroides, 312 h, rate 1,000 g/ha, read-out: Percentage damage caused to weed species, post-emergence, ALOMY
Method in brief: (§2)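 Standard soil, potted from seed; post-emergence treatment; glasshouse 24/16° C. (day/night), 14 h light, 65% humidity; watering twice daily.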

[8] = system: Amaranthus retroflexus (AMARE); experiment: as above; settings: Amaranthus retroflexus, 312 h, rate 1,000 g/ha, read-out: Percentage damage caused to weed species, post-emergence, AMARE
Method in brief: as §2

[9] = system: Echinochloa crusgaffi (ECHCG); experiment: as above; settings: Echinochloa, 312 h, rate 1,000 g/ha, read-out: Percentage damage caused to weed species, post-emergence, ECHCG
Method in brief: as §2

[10] = system: Ipomoea hederaceae (IPOHE); experiment: as above; settings: Ipomoea, 312 h, rate 1,000 g/ha, read-out: Percentage damage caused to weed species, post-emergence, IPOHE
Method in brief: as §2

Setaria faberi (SETFA) [11] = experiment: as above; settings: Setaria faberi, 312 h, rate 1,000 g/ha, read-out: Percentage damage caused to weed species, post-emergence, SETFA
Method in brief: as §2

Solanum nigrum (SOLNI) [12] = experiment: as above; settings: Solanum nigrum, 312 h, rate 1,000 g/ha, read-out: Percentage damage caused to weed species, post-emergence, SOLNI
Method in brief: as §2

COC(=O)c1nc(-c2ccc(Cl)c(OC)c2F)nc2c1cc(C)n2Cc1ccccc1[N+](=O)[O-] [Compound 8-66, 2-(4-Chloro-2-fluoro-3-methoxyphenyl)-4-methoxycarbonyl-6-methyl-7-(2-nitrophenyl-methyl)-7H-pyrrolo[2,3-d]pyrimidine]
pest or weed control at 1000 g/ha [1]: 0%
pest or weed control at 1000 g/ha [2]: 10%
pest or weed control at 1000 g/ha [3]: 0%
pest or weed control at 1000 g/ha [4]: 0%
pest or weed control at 1000 g/ha (Setaria faberi (SETFA) [5]): 0%
pest or weed control at 1000 g/ha (Solanum nigrum (SOLNI) [6]): 10%
pest or weed control at 1000 g/ha [7]: 0%
pest or weed control at 1000 g/ha [8]: 0%
pest or weed control at 1000 g/ha [9]: 0%
pest or weed control at 1000 g/ha [10]: 10%
pest or weed control at 1000 g/ha (Setaria faberi (SETFA) [11]): 0%
pest or weed control at 1000 g/ha (Solanum nigrum (SOLNI) [12]): 30%

COC(=O)c1nc(-c2ccc(Cl)c(OC)c2F)nc2[nH]c(C)cc12 [Compound 1-66, 2-(4-chloro-2-fluoro-3-methoxyphenyl)-4-methoxycarbonyl-6-methyl-7H-pyrrolo[2,3-d]pyrimidine]
pest or weed control at 1000 g/ha [1]: 20%
pest or weed control at 1000 g/ha [2]: 100%
pest or weed control at 1000 g/ha [3]: 40%
pest or weed control at 1000 g/ha [4]: 90%
pest or weed control at 1000 g/ha (Setaria faberi (SETFA) [5]): 70%
pest or weed control at 1000 g/ha (Solanum nigrum (SOLNI) [6]): 100%
pest or weed control at 1000 g/ha [7]: 80%
pest or weed control at 1000 g/ha [8]: 100%
pest or weed control at 1000 g/ha [9]: 80%
pest or weed control at 1000 g/ha [10]: 80%
pest or weed control at 1000 g/ha (Setaria faberi (SETFA) [11]): 80%
pest or weed control at 1000 g/ha (Solanum nigrum (SOLNI) [12]): 100%

CCCCOCCOC(=O)c1nc(-c2ccc(Cl)c(OC)c2F)nc2[nH]cc(C)c12 [Compound 1-83, 4-[(2-n-Butoxy)-ethoxycarbonyl]-2-(4-chloro-2-fluoro-3-methoxyphenyl)-5-methy-7H-pyrrolo[2,3-d]pyrimidine]
pest or weed control at 1000 g/ha [1]: 0%
pest or weed control at 1000 g/ha [2]: 40%
pest or weed control at 1000 g/ha [3]: 0%
pest or weed control at 1000 g/ha [4]: 20%
pest or weed control at 1000 g/ha (Setaria faberi (SETFA) [5]): 0%
pest or weed control at 1000 g/ha (Solanum nigrum (SOLNI) [6]): 30%
pest or weed control at 1000 g/ha [7]: 0%
pest or weed control at 1000 g/ha [8]: 70%
pest or weed control at 1000 g/ha [9]: 10%
pest or weed control at 1000 g/ha [10]: 40%
pest or weed control at 1000 g/ha (Setaria faberi (SETFA) [11]): 10%
pest or weed control at 1000 g/ha (Solanum nigrum (SOLNI) [12]): 70%

COC(=O)c1nc(-c2ccc(Cl)c(OC)c2F)nc2c1c(C)cn2Cc1ccc(C(F)(F)F)o1 [Compound 12-64]
pest or weed control at 1000 g/ha [1]: 0%
pest or weed control at 1000 g/ha [2]: 0%
pest or weed control at 1000 g/ha [3]: 0%
pest or weed control at 1000 g/ha [4]: 0%
pest or weed control at 1000 g/ha (Setaria faberi (SETFA) [5]): 0%
pest or weed control at 1000 g/ha (Solanum nigrum (SOLNI) [6]): 0%
pest or weed control at 1000 g/ha [7]: 10%
pest or weed control at 1000 g/ha [8]: 20%
pest or weed control at 1000 g/ha [9]: 10%
pest or weed control at 1000 g/ha [10]: 50%
pest or weed control at 1000 g/ha (Setaria faberi (SETFA) [11]): 30%
pest or weed control at 1000 g/ha (Solanum nigrum (SOLNI) [12]): 30%

CCOC(=O)c1nc(-c2ccc(Cl)c(OC)c2F)cc2[nH]cc(C)c12 [Compound 22-75, 6-(4-chloro-2-fluoro-3-methoxyphenyl)-4-ethoxycarbonyl-3-methyl-1H-pyrrolo[3,2-c]pyridine]
pest or weed control at 1000 g/ha [1]: 10%
pest or weed control at 1000 g/ha [2]: 70%
pest or weed control at 1000 g/ha [3]: 10%
pest or weed control at 1000 g/ha [4]: 90%
pest or weed control at 1000 g/ha (Setaria faberi (SETFA) [5]): 0%
pest or weed control at 1000 g/ha (Solanum nigrum (SOLNI) [6]): 80%
pest or weed control at 1000 g/ha [7]: 10%
pest or weed control at 1000 g/ha [8]: 80%
pest or weed control at 1000 g/ha [9]: 20%
pest or weed control at 1000 g/ha [10]: 60%
pest or weed control at 1000 g/ha (Setaria faberi (SETFA) [11]): 50%
pest or weed control at 1000 g/ha (Solanum nigrum (SOLNI) [12]): 90%

COC(=O)c1nc(Cl)cc2[nH]cc(Cl)c12 [Compound 22-132, 3,6-dichloro-4-methoxycarbonyl-1H-pyrrolo[3,2-c]pyridine]
pest or weed control at 1000 g/ha [1]: 0%
pest or weed control at 1000 g/ha [2]: 0%
pest or weed control at 1000 g/ha [3]: 0%
pest or weed control at 1000 g/ha [4]: 40%
pest or weed control at 1000 g/ha (Setaria faberi (SETFA) [5]): 0%
pest or weed control at 1000 g/ha (Solanum nigrum (SOLNI) [6]): 10%
pest or weed control at 1000 g/ha [7]: 0%
pest or weed control at 1000 g/ha [8]: 50%
pest or weed control at 1000 g/ha [9]: 0%
pest or weed control at 1000 g/ha [10]: 50%
pest or weed control at 1000 g/ha (Setaria faberi (SETFA) [11]): 0%
pest or weed control at 1000 g/ha (Solanum nigrum (SOLNI) [12]): 60%

COC(=O)c1nc(Cl)cc2[nH]cc(C)c12 [Compound 22-124, 6-chloro-4-methoxycarbonyl-3-methyl-1H-pyrrolo[3,2-c]pyridine]
pest or weed control at 1000 g/ha [1]: 70%
pest or weed control at 1000 g/ha [2]: 100%
pest or weed control at 1000 g/ha [3]: 20%
pest or weed control at 1000 g/ha [4]: 100%
pest or weed control at 1000 g/ha (Setaria faberi (SETFA) [5]): 30%
pest or weed control at 1000 g/ha (Solanum nigrum (SOLNI) [6]): 100%
pest or weed control at 1000 g/ha [7]: 30%
pest or weed control at 1000 g/ha [8]: 80%
pest or weed control at 1000 g/ha [9]: 20%
pest or weed control at 1000 g/ha [10]: 80%
pest or weed control at 1000 g/ha (Setaria faberi (SETFA) [11]): 40%
pest or weed control at 1000 g/ha (Solanum nigrum (SOLNI) [12]): 90%

COC(=O)c1nc(-c2ccc(Cl)c(F)c2)cc2[nH]cc(C)c12 [Compound 22-20, 6-(4-Chloro-3-fluorophenyl)-4-methoxycarbonyl-3-methyl-1H-pyrrolo[3,2-c]pyridine]
pest or weed control at 1000 g/ha [1]: 20%
pest or weed control at 1000 g/ha [2]: 100%
pest or weed control at 1000 g/ha [3]: 20%
pest or weed control at 1000 g/ha [4]: 80%
pest or weed control at 1000 g/ha (Setaria faberi (SETFA) [5]): 0%
pest or weed control at 1000 g/ha (Solanum nigrum (SOLNI) [6]): 60%
pest or weed control at 1000 g/ha [7]: 50%
pest or weed control at 1000 g/ha [8]: 100%
pest or weed control at 1000 g/ha [9]: 70%
pest or weed control at 1000 g/ha [10]: 70%
pest or weed control at 1000 g/ha (Setaria faberi (SETFA) [11]): 60%
pest or weed control at 1000 g/ha (Solanum nigrum (SOLNI) [12]): 80%

COc1c(Cl)ccc(-c2nc3c(c(C(=O)O)n2)N[C@@H]2CCCC[C@H]2N3)c1F [Compound 91-207, (5aR,9aR)-4-Carboxy-2-(4-chloro-2-fluoro-3-methoxyphenyl)-5,5a,6,7,8,9,9a,10-octahydro-benzo[g]pteridine]
pest or weed control at 1000 g/ha [1]: 0%
pest or weed control at 1000 g/ha [2]: 20%
pest or weed control at 1000 g/ha [3]: 0%
pest or weed control at 1000 g/ha [4]: 0%
pest or weed control at 1000 g/ha (Setaria faberi (SETFA) [5]): 10%
pest or weed control at 1000 g/ha (Solanum nigrum (SOLNI) [6]): 10%
pest or weed control at 1000 g/ha [7]: 0%
pest or weed control at 1000 g/ha [8]: 20%
pest or weed control at 1000 g/ha [9]: 0%
pest or weed control at 1000 g/ha [10]: 60%
pest or weed control at 1000 g/ha (Setaria faberi (SETFA) [11]): 0%
pest or weed control at 1000 g/ha (Solanum nigrum (SOLNI) [12]): 70%

COC(=O)c1nc(-c2ccc(Cl)c(OC)c2F)nc2c1cc(C)n2Cc1ccccc1 [Compound 6-66, 2-(4-Chloro-2-fluoro-3-methoxyphenyl)-4-methoxycarbonyl-6-methyl-7-phenylmethyl-7H-pyrrolo[2,3-d]pyrimidine]
pest or weed control at 1000 g/ha [1]: 0%
pest or weed control at 1000 g/ha [2]: 10%
pest or weed control at 1000 g/ha [3]: 0%
pest or weed control at 1000 g/ha [4]: 0%
pest or weed control at 1000 g/ha (Setaria faberi (SETFA) [5]): 0%
pest or weed control at 1000 g/ha (Solanum nigrum (SOLNI) [6]): 20%
pest or weed control at 1000 g/ha [7]: 0%
pest or weed control at 1000 g/ha [8]: 40%
pest or weed control at 1000 g/ha [9]: 0%
pest or weed control at 1000 g/ha [10]: 40%
pest or weed control at 1000 g/ha (Setaria faberi (SETFA) [11]): 10%
pest or weed control at 1000 g/ha (Solanum nigrum (SOLNI) [12]): 80%

COc1c(Cl)ccc(-c2nc(C(=O)O)c3c(C)cn(Cc4ccc(C(F)(F)F)o4)c3n2)c1F [Compound 12-63, 4-Carboxy-2-(4-chloro-2-fluoro-3-methoxyphenyl)-7-(5-trifluoromethyl-furan-2-yl-methyl)-5-methyl-7H-pyrrolo[2,3-d]pyrimidine]
pest or weed control at 1000 g/ha [1]: 0%
pest or weed control at 1000 g/ha [2]: 60%
pest or weed control at 1000 g/ha [3]: 0%
pest or weed control at 1000 g/ha [4]: 10%
pest or weed control at 1000 g/ha (Setaria faberi (SETFA) [5]): 20%
pest or weed control at 1000 g/ha (Solanum nigrum (SOLNI) [6]): 0%
pest or weed control at 1000 g/ha [7]: 0%
pest or weed control at 1000 g/ha [8]: 30%
pest or weed control at 1000 g/ha [9]: 0%
pest or weed control at 1000 g/ha [10]: 50%
pest or weed control at 1000 g/ha (Setaria faberi (SETFA) [11]): 0%
pest or weed control at 1000 g/ha (Solanum nigrum (SOLNI) [12]): 70%

— patent publication US20120202690A1, “HERBICIDAL COMPOUNDS” (SYNGENTA LIMITED, priority 2009, published 2012)
